Patent publication EP3925949A1, “AZIDO COMPOUNDS AND METHOD FOR MONITORING ACID CERAMIDASE ACTIVITY IN INTACT CELLS USING THEM” (Consejo Superior de Investigaciones Científicas (CSIC), priority 2020, dated 2021)

Experiments:
Assay type in all cases: cell-based
A375 cells = assay: Cell viability (MTT method); settings: A375/+Dox, 4 h, whole range of concentrations examined
Procedure: A375 cells were seeded at 2.5 × 10^4 cells/mL in 96-well plates (0.1 ml/well) and grown for 24 h. Overexpression of AC was induced with doxycycline at 1 µg/mL for 24 h. Cell viability was examined in triplicate samples by MTT method after treatment with DM120 at different concentrations or with the corresponding percentage of vehicle for 4 h.

acid ceramidase (AC) [1] = molecular target: T1, acid ceramidase (AC) (Homo sapiens, UniProt Q13510); assay: Fluorogenic AC activity in intact cells (substrate RBM14C12); parameters: expressed in transfected cells; host or cells: A375/+Dox (overexpressing AC); settings: AC overexpressing A375 cells (A375/+Dox), 4 h, substrate RBM14C12 40 µM
T1 sequence (Q13510 143-395 limits assumed): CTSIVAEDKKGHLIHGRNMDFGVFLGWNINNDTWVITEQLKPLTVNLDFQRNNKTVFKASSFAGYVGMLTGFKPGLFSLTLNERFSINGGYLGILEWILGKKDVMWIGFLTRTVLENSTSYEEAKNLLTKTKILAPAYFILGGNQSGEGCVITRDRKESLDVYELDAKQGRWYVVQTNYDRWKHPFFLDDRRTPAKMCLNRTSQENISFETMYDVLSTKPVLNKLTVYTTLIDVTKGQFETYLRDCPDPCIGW
T1 sequence (Q13510 22-142 limits assumed): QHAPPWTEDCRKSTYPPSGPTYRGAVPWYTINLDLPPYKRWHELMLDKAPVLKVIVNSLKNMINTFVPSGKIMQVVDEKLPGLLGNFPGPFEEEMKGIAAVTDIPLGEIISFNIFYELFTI
Procedure: To determine AC activity in intact cells, A375 cells were seeded at 2.5 × 10^4 cells/mL in 96-well plates (0.1 ml/well) and grown for 24 h. Overexpression of AC was induced with doxycycline at 1 µg/mL for 24 h. Medium was replaced by DM120 at different concentrations and substrate RBM14C12 at a final concentration of 40 µM in DMEM. The plate was incubated for 4 h at 37°C in 5% CO2. The reaction was stopped with 25 µL of MeOH and then 100 µL of NalO4 (2.5 mg/mL in glycine-NaOH buffer, pH 10.6) was added. After incubation at 37°C for 1 h, 100 µL of 0.1 M glycine-NaOH buffer (pH 10.6) was added and fluorescence was measured spectrophotometrically at excitation and emission wavelengths of 355 and 460 nm, respectively. The same reaction mixture without cells was used as blank.

acid ceramidase (AC) [2] = molecular target: T1, acid ceramidase (AC); assay: AC activity by flow cytometry with RBM5-177/CO-1 in intact cells; parameters: expressed in transfected cells; host or cells: A375/+Dox and FD/AC (overexpressing AC); A375/-Dox and A549 (endogenous AC); settings: A375/+Dox, 4 h, RBM5-177 as substrate, labelling with CO-1 (1 µM, 10 min)
Procedure: Cells were seeded at 1 × 10^5 cells/mL into 6 well plates (1 mL/well) and were allowed to adhere for 24 h. Medium was replaced with fresh medium containing Soclac (5 µM final concentration) and incubated for 1 h. After this time, the medium was replaced with RBM5-177, RBM5-019 or RBM2-37 (5 µM final concentration) +/- Soclac and incubated for 20 min. In the experiments with DM120, the compound, Soclac and RBM5-177 were incubated together for 4 h. After probes incubation, the medium was replaced with fresh medium containing CO-1 (1 µM final concentration), and cells were incubated for 10 min. Then cells were washed 3 times with DMEM for 5 min at 37 °C, and finally washed with 400 µL PBS and harvested with 400 µL Trypsin-EDTA and 600 µL of medium. Pellets were resuspended with 200 µL of PBS and stained cells were analyzed by using a Guava EasyCyte™ flow cytometer (Merck Millipore, Billerica, MA) measuring green fluorescence (488/525 nm). Data analysis was performed using the Multicycle AV program (Phoenix Flow Systems, San Diego, CA).

acid ceramidase (AC) [3] = molecular target: T1, acid ceramidase (AC); assay: AC activity in intact cells by UPLC-HRMS quantification of RBM5-019 and reacylated products; parameters: expressed in transfected cells; host or cells: A375/+Dox (overexpressing AC); settings: A375/+Dox, 4 h, decrease in RBM5-19 amounts by UPLC-HRMS
Procedure: Cells were seeded at 5 × 10^5 cells/mL into 6 well plates (1 mL/well) and were allowed to adhere for 24 h. Medium was replaced with fresh medium containing RBM5-177, RBM5-019 or RBM2-37 (5 μM final concentration). After 30 min, medium was removed; cells were washed with 400 μL PBS and harvested with 400 μL Trypsin-EDTA and 600 μL of medium. NC recombinant enzyme, lysates from A375-AC overexpressing cells, MEF5 or microsomes from HeLa T-Rex ACER1-TET-ON and HeLa T-Rex ACER2-TET-ON cells stably overexpress ACER1 orACER2 respectively were incubated with RBM5-177 or RBM5-019 (10 μM final concentration) for 3 h in the corresponding ceramidase activity buffer. Cell pellets were resuspended with 100 μL of H2O and mixed with 750 μL of methanol: chloroform, 2:1. Samples were heated at 48°C overnight and next day, 75 μL of 1 M KOH in methanol were added, followed by 2 h incubation at 37°C. Afterwards, the saponification was neutralised with 75 μL of 1 M acetic acid and solvent was removed using a […] (Thermo Scientific). Sphingolipid extracts, fortified with internal standards (N-dodecanoylsphingosine, N-dodecanoylglucosylsphingosine, N-dodecanoylsphingosylphosphorylcoline and C17-sphinganine 0.2 nmol each) were solubilised in 150 μL of methanol. Samples were then centrifuged at 9,300 g for 3 min and 130 μL of the supernatant were injected to a Waters Aquity UPLC system connected to a Waters LCT Premier Orthogonal Accelerated Time of Flight Mass Spectrometer (Waters,Milford, MA, USA) operated in positive electrospray ionisation mode. Full scan spectra from 50 to 1500 Da were acquired and individual spectra were summed to produce data points each 0.2 s. Mass accuracy and reproducibility were maintained by using an independent reference spray by the LockSpray interference. The analytical column was a 100 mm x2.1 mm i.d., 1.7 μm C8 Acquity UPLC BEH (Waters). The two mobile phases were phase A: methanol/water/formic acid (74/25/1 v/v/v); phase B: methanol/formic acid (99/1 v/v), both also contained 5 mM ammonium formate. […]

CerS = CerS activity-dependence of labelling with RBM5-177 (confocal microscopy and UPLC-HRMS); settings: A375/+Dox cells, FB1 100 µM, 24 h
Procedure: Cells were seeded at 5 × 10^5 cells/mL into 6 well plates (1 mL/well) and were allowed to adhere for 24 h. Medium was replaced with fresh medium containing RBM5-177, RBM5-019 or RBM2-37 (5 µM final concentration). After 30 min, medium was removed; cells were washed with 400 µL PBS and harvested with 400 µL Trypsin-EDTA and 600 µL of medium. NC recombinant enzyme, lysates from A375-AC overexpressing cells, MEF5 or microsomes from HeLa T-Rex ACER1-TET-ON and HeLa T-Rex ACER2-TET-ON cells stably overexpress ACER1 orACER2 respectively were incubated with RBM5-177 or RBM5-019 (10 µM final concentration) for 3 h in the corresponding ceramidase activity buffer. Cell pellets were resuspended with 100 µL of H2O and mixed with 750 µL of methanol: chloroform, 2:1. Samples were heated at 48°C overnight and next day, 75 µL of 1 M KOH in methanol were added, followed by 2 h incubation at 37°C. Afterwards, the saponification was neutralised with 75 µL of 1 M acetic acid and solvent was removed using a Speed Vac Savant SPD131 DDA (Thermo Scientific). […]
Cells were seeded at 1 × 10^5 cells/mL on glass-bottom plates and allowed to adhere for 24 h. […] Co-localization coefficients were measured using the JaCoP plugin (S. Bolte et al. J. Microsc. 2006, 224, 213-232) on the different stacks of images (at least n=4) with each stack containing 3-10 cells.

acid ceramidase (AC) [4] = molecular target: T1, acid ceramidase (AC); assay: AC activity-dependence of labelling (fluorescence confocal microscopy); parameters: expressed in transfected cells; host or cells: FD/AC (overexpressing AC); settings: A375/+Dox and A375/-Dox, with or without SOCLAC (Fig. 7A)
Procedure: Cells were seeded at 1 × 10^5 cells/mL on glass-bottom plates and allowed to adhere for 24 h. For golgi staining, cells were incubated with 40 µL/well of CellLight Golgi-RFP BacMam 2.0 for 24 h. […] After this time, the medium was replaced with fresh medium containing CO-1 (1 µM final concentration), and cells were incubated for 10 min. Then cells were washed 3 times with DMEM for 5 min at 37 °C, 75 nM LysoTracker Red DND-99 or 75 nM Mitotracker in phenol red-free DMEM was added to stain lysosomes or mitochondria, and cells were kept in the incubator for microscope analysis. Staining was viewed with a Zeiss LSM 880 confocal microscope or Leica TCS SP8-Hyvolution. Image analysis was performed using Fiji software.^[7] To measure the Manders's and Pearson's coefficients a threshold including organelles and discarding the background was set. Co-localization coefficients were measured using the JaCoP plugin (S. Bolte et al. J. Microsc. 2006, 224, 213-232) on the different stacks of images (at least n=4) with each stack containing 3-10 cells.

Question: For CCCCCCCCCCCCC/C=C/[C@H](CO)NC(=O)C(C)(C)C [DM120], which toxicity (A375 cells) is on record?
Answer: The toxicity was “without toxicity in the whole range of concentrations examined”.

Question: And the IC50 (acid ceramidase (AC) [1])?
Answer: Its IC50 is 9.4 µM.

Question: What about the IC50 (acid ceramidase (AC) [2]) of the same compound?
Answer: The IC50 was 27 µM.

Question: And the IC50 (acid ceramidase (AC) [3])?
Answer: The IC50 was 18 µM.

Question: With CCCC[C@@H](C)[C@@H](OC(=O)C[C@@H](CC(=O)O)C(=O)O)[C@H](C[C@@H](C)C[C@H](O)CCCC[C@@H](O)C[C@H](O)[C@H](C)N)OC(=O)C[C@@H](CC(=O)O)C(=O)O [FB1, Fumonisin B1] as the compound, how does the “effect on transacylation (N-acylderivatives)” value (CerS; UPLC-HRMS (Fig. 4B)) read?
Answer: Its value is “transacylation was blocked”.

Question: What about the “effect on extralysosomal staining” value (CerS; confocal microscopy (Fig. 4A)) of the same compound?
Answer: The value was “prevented”.

Question: For C[C@H](N)[C@H](O)CCCCCCCCCCCCN=[N+]=[N-] [RBM5-019, (2S,3R)-2-Amino-15-azidopentadecan-3-ol], which “sensitivity of lysosome labelling to AC activity” value (acid ceramidase (AC) [4]) is on record?
Answer: Its value is “not sensitive to AC overexpression or blockade”.
